According to article PMC4138103 (PLoS ONE, 2014):

Test system: Sprague-Dawley rats
Assay: Organ weights
Assay type: in vivo, Rattus norvegicus
Method: At the end of the treatment period (males on study day 28–31, females on study day 28–32) the rats were anesthetized with CO2/O2 (70/30%). Blood samples were drawn from the left ventricle using Venoject needles (Terumo) and Vacuette EDTA and serum blood collection tubes, and the rats were killed by exsanguination. EDTA blood was used for hematology investigations (see below). Serum was separated, divided into aliquots, frozen in liquid nitrogen and stored at −70°C for further analysis (see below). A complete necropsy (macroscopic observations, tissue sampling for molecular biology, biochemistry, histopathology, analytical chemistry and organ weights) was performed on each rat. The weights of the following organs were recorded: adrenals, brain, epididymides, heart, kidneys, liver, lungs, ovaries, pituitary, prostate (ventral), seminal vesicles, spleen, testes, thymus, thyroids (with parathyroids) and uterus. For molecular biology and biochemical analyses samples from brain, liver, kidney, bones, and several other tissues were snap frozen in liquid nitrogen and stored at −80°C for further analysis. […] Tissue samples for histopathology were preserved in 10% neutral buffered formalin except testis and epididymis, which were fixed in Bouin's solution for 24 h after which they were transferred into 70% ethanol.
Data were also analyzed using the BMD method, which is based on dose-response modeling of the full data set using a nested family of exponential and Hill models. The analyses were done on data of males and females combined, using sex as a covariate. […] In that case, different Critical Effect Doses (CEDs) and CEDs at the lowest bound of the confidence interval (CED-L) were generated for each sex. If no difference between sexes is detected, a CED and CED-Ls for the combined data is generated. However, this was also done if the curve fits are close, and separate analyses for males and females were then performed manually. CEDs and CED-Ls were calculated at the predefined Critical Effect Size (CES) of 5% (EFSA standard) or 10%.

[1] = females, total dose 1000 mg/kg bw, group mean
[2] = females, total dose 1700 mg/kg bw, group mean
[3] = males, CES 5%, total dose based
[4] = males, CES 10%, total dose based
[5] = males, adipose tissue concentration based
[6] = males, total dose 3 mg/kg bw, group mean
[7] = males, total dose 10 mg/kg bw, group mean
[8] = males, total dose 30 mg/kg bw, group mean
[9] = males, total dose 100 mg/kg bw, group mean
[10] = males, total dose 300 mg/kg bw, group mean
[11] = males, total dose 1000 mg/kg bw, group mean
[12] = males, total dose 1700 mg/kg bw, group mean

Compound: Clc1cc(Cl)c(-c2cc(Cl)c(Cl)c(Cl)c2Cl)cc1Cl [PCB 180, 2,2′,3′,4,4′,5,5′-heptachlorobiphenyl]
- Organ weight, Spleen [1]: 0.700 g
- Organ weight, Thymus [1]: 0.528 g
- Organ weight, Thyroid gland [1]: 0.0158 g
- Organ weight, Uterus [1]: 0.374 g
- Organ weight, Adrenals [2]: 0.0657 g
- Organ weight, Brain [2]: 1.60 g
- Organ weight, Heart [2]: 0.900 g
- Organ weight, Kidneys [2]: 1.40 g
- Organ weight, Ovaries [2]: 0.102 g
- Organ weight, Pituitary [2]: 0.0108 g
- Organ weight, Spleen [2]: 0.664 g
- Organ weight, Thymus [2]: 0.560 g
- Organ weight, Thyroid gland [2]: 0.0160 g
- Organ weight, Uterus [2]: 0.366 g
- Dose response, Thyroid gland weight (males, total dose 0-1700 mg/kg bw): D, T
- Liver weight, CED [3]: 11.6 mg/kg bw
- Liver weight, CED-L [3]: 5.48 mg/kg bw
- Thyroid gland weight, CED [3]: 239 mg/kg bw
- Thyroid gland weight, CED-L [3]: 168 mg/kg bw
- Liver weight, CED [4]: 24.2 mg/kg bw
- Liver weight, CED-L [4]: 11.4 mg/kg bw
- Thyroid gland weight, CED [4]: 467 mg/kg bw
- Thyroid gland weight, CED-L [4]: 328 mg/kg bw
- Liver weight, CED [5]: 42.3 µg/g lipid
- Thyroid weight, CED [5]: 1030 µg/g lipid
- Organ weight, Adrenals [6]: 0.0472 g
- Organ weight, Brain [6]: 1.65 g
- Organ weight, Epididymides [6]: 0.972 g
- Organ weight, Heart [6]: 1.27 g
- Organ weight, Kidneys [6]: 2.00 g
- Organ weight, Pituitary [6]: 0.0091 g
- Organ weight, Seminal vesicles [6]: 0.915 g
- Organ weight, Spleen [6]: 0.828 g
- Organ weight, Testis L [6]: 1.82 g
- Organ weight, Testis R [6]: 1.82 g
- Organ weight, Thymus [6]: 0.632 g
- Organ weight, Thyroid gland [6]: 0.0210 g
- Organ weight, Ventral prostate [6]: 0.492 g
- Organ weight, Adrenals [7]: 0.0514 g
- Organ weight, Brain [7]: 1.75 g
- Organ weight, Epididymides [7]: 0.952 g
- Organ weight, Heart [7]: 1.17 g
- Organ weight, Kidneys [7]: 2.15 g
- Organ weight, Pituitary [7]: 0.0088 g
- Organ weight, Seminal vesicles [7]: 0.983 g
- Organ weight, Spleen [7]: 0.828 g
- Organ weight, Testis L [7]: 1.92 g
- Organ weight, Testis R [7]: 1.88 g
- Organ weight, Thymus [7]: 0.594 g
- Organ weight, Thyroid gland [7]: 0.0221 g
- Organ weight, Ventral prostate [7]: 0.451 g
- Organ weight, Adrenals [8]: 0.0665 g
- Organ weight, Brain [8]: 1.72 g
- Organ weight, Epididymides [8]: 1.030 g
- Organ weight, Heart [8]: 1.31 g
- Organ weight, Kidneys [8]: 2.09 g
- Organ weight, Pituitary [8]: 0.0098 g
- Organ weight, Seminal vesicles [8]: 0.966 g
- Organ weight, Spleen [8]: 0.876 g
- Organ weight, Testis L [8]: 1.79 g
- Organ weight, Testis R [8]: 1.78 g
- Organ weight, Thymus [8]: 0.764 g
- Organ weight, Thyroid gland [8]: 0.0227 g
- Organ weight, Ventral prostate [8]: 0.518 g
- Organ weight, Adrenals [9]: 0.0513 g
- Organ weight, Brain [9]: 1.70 g
- Organ weight, Epididymides [9]: 0.992 g
- Organ weight, Heart [9]: 1.20 g
- Organ weight, Kidneys [9]: 2.13 g
- Organ weight, Pituitary [9]: 0.0107 g
- Organ weight, Seminal vesicles [9]: 1.015 g
- Organ weight, Spleen [9]: 0.826 g
- Organ weight, Testis L [9]: 1.88 g
- Organ weight, Testis R [9]: 1.88 g
- Organ weight, Thymus [9]: 0.770 g
- Organ weight, Thyroid gland [9]: 0.0236 g
- Organ weight, Ventral prostate [9]: 0.521 g
- Organ weight, Adrenals [10]: 0.0407 g
- Organ weight, Brain [10]: 1.74 g
- Organ weight, Epididymides [10]: 0.966 g
- Organ weight, Heart [10]: 1.23 g
- Organ weight, Kidneys [10]: 2.11 g
- Organ weight, Pituitary [10]: 0.0098 g
- Organ weight, Seminal vesicles [10]: 1.038 g
- Organ weight, Spleen [10]: 0.858 g
- Organ weight, Testis L [10]: 1.87 g
- Organ weight, Testis R [10]: 1.85 g
- Organ weight, Thymus [10]: 0.690 g
- Organ weight, Thyroid gland [10]: 0.0266 g
- Organ weight, Ventral prostate [10]: 0.536 g
- Organ weight, Adrenals [11]: 0.0450 g
- Organ weight, Brain [11]: 1.71 g
- Organ weight, Epididymides [11]: 0.974 g
- Organ weight, Heart [11]: 1.12 g
- Organ weight, Kidneys [11]: 2.18 g
- Organ weight, Pituitary [11]: 0.0115 g
- Organ weight, Seminal vesicles [11]: 1.210 g
- Organ weight, Spleen [11]: 0.858 g
- Organ weight, Testis L [11]: 1.89 g
- Organ weight, Testis R [11]: 1.85 g
- Organ weight, Thymus [11]: 0.686 g
- Organ weight, Thyroid gland [11]: 0.0294 g
- Organ weight, Ventral prostate [11]: 0.566 g
- Organ weight, Adrenals [12]: 0.0463 g
- Organ weight, Brain [12]: 1.68 g
- Organ weight, Epididymides [12]: 0.952 g
- Organ weight, Heart [12]: 1.16 g
- Organ weight, Kidneys [12]: 2.03 g
- Organ weight, Pituitary [12]: 0.0089 g
- Organ weight, Seminal vesicles [12]: 0.947 g
- Organ weight, Spleen [12]: 0.800 g
- Organ weight, Testis L [12]: 1.84 g
- Organ weight, Testis R [12]: 1.88 g
- Organ weight, Thymus [12]: 0.772 g
- Organ weight, Ventral prostate [12]: 0.461 g
- Thymus weight (rat, in vivo): not decreased
